# According to patent US20250051313A1, “PHTHALAZINE DERIVATIVES AS PYRUVATE KINASE MODULATORS” (Sitryx Therapeutics Limited, priority 2021, published 2025):
# Read-outs that look alike come from different tables or passages of the source.
# How the values were obtained:
# [1] = biological target: recombinant human PKM2 (Homo sapiens (Human), UniProt P14618); assay: Human PKM2 activation assay (Kinase-Glo Plus luminescence); type: biochemical; settings: for Emax: read-out: hPKM2 Emax
# Description: (§1) Measuring in vitro activation of recombinant human PKM2 Compound activation of recombinant human PKM2 pyruvate kinase activity was determined by biochemical assay. N-terminal His-tagged hPKM2 was sourced from R&D Systems and its substrates phosphoenolpyruvate (PEP) and ADP from Sigma-Aldrich and 2Bscientific Ltd, respectively. The Kinase-Glo® Plus luminescence assay was from Promega. All other reagents were from Sigma-Aldrich. Test Compounds were prepared as 10 mM DMSO stocks and dilution series prepared in DMSO for direct dilution into Assay Buffer comprising 50 mM imidazole, 50 mM KCl, 7 mM MgCl2, 0.01% Tween20, 0.05% BSA (pH 7.2).
# Human PKM2 was diluted into Assay Buffer comprising 50 mM imidazole, 50 mM KCl, 7 mM MgCl2, 0.01% Tween20, 0.05% BSA (pH 7.2) to a final concentration of 5 pM. Enzyme-Assay Buffer mix was dispensed into a 384-well shallow-well white-walled plate (PerkinElmer) and Test Compounds added by acoustic dispense (Echo®, Labcyte Inc.).
# (§2) After 60 minutes' incubation on an orbital shaker (300 rpm, 26° C.), enzyme activity was quantified by the luminescent detection of generated ATP. Kinase-Glo® Plus reagent was added to each well and the plates incubated for a further 15 minutes on an orbital shaker in the dark (300 rpm, 26° C.) before luminescence measurement on a plate reader (PHERAstar® FSX, BMG Labtech).
# (§3) Percentage activation was calculated by normalising […] signals to plate LOW (DMSO vehicle) and HIGH (5 μM TEPP-46) controls. EC50 and Emax values were determined from 4-parameter logistic fits of compound concentration-response curves.
# [2] = biological target: pyruvate kinase (PK) activity in human CD4+ T cell lysates (Homo sapiens, UniProt P14618); assay: CD4+ T cell pyruvate kinase assay; type: cell-based; settings: human CD4+ T cells incubated with compound 20 minutes, then lysed; ΔAbsorbance OD570
# Description: Compound activation of pyruvate kinase in human CD4+ T cell lysates was determined by biochemical assay. Primary CD4+ T cells were used rather than cancer cell lines to improve the disease relevance of the assay. The PK assay was sourced from Abcam. All other reagents were sourced from ThermoFisher. Test compounds were prepared as 10 mM DMSO stocks and dilution series prepared in DMSO for addition to intact CD4+ T cells cultured in RPMI media containing 10% FBS.
# Human CD4+ T cells were incubated with compound for 20 minutes and then washed twice in 1×PBS before resuspension in Abcam PK lysis buffer to prepare cell lysates. 10 μl PK assay Reaction Mix was added per well, including OXIRED™ PROBE. The plates were read using a BMG Labtech Pherastar plate reader at OD570 nm in kinetic mode for […] (25 cycles of 2 minutes) at 25° C., protecting from light.
# Plates were blank-subtracted and ΔAbsorbance calculated by subtracting the first plate read within the linear range from the plate read at the timepoint of interest. PK activity is expressed as ΔAbsorbance and plotted against log [Compound].
# [3] = biological target: recombinant human PKLR (Homo sapiens (Human), UniProt P30613); assay: Human PKLR activation assay (Kinase-Glo Plus luminescence); type: biochemical
# Description: as §1, with “PKLR” for “PKM2”, “enzyme” for “hPKM2”
# Human PKLR was diluted into Assay Buffer to a final concentration of 5 pM. […]
# as §2, §3
# recombinant human PKM2, sequence (P14618 whole entry): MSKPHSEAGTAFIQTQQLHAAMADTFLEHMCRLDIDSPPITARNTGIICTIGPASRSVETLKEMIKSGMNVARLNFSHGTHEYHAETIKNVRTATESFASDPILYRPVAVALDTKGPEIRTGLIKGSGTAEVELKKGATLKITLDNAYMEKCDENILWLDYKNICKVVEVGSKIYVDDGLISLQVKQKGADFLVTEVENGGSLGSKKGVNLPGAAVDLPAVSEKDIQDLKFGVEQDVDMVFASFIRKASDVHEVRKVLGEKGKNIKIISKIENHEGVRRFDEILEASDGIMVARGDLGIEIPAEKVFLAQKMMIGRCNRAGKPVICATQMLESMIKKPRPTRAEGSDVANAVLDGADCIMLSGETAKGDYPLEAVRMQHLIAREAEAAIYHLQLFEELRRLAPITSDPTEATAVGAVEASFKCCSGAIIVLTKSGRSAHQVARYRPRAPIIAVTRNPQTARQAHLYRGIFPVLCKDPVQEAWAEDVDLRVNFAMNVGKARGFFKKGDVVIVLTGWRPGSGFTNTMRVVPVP
# recombinant human PKLR, sequence (P30613 whole entry): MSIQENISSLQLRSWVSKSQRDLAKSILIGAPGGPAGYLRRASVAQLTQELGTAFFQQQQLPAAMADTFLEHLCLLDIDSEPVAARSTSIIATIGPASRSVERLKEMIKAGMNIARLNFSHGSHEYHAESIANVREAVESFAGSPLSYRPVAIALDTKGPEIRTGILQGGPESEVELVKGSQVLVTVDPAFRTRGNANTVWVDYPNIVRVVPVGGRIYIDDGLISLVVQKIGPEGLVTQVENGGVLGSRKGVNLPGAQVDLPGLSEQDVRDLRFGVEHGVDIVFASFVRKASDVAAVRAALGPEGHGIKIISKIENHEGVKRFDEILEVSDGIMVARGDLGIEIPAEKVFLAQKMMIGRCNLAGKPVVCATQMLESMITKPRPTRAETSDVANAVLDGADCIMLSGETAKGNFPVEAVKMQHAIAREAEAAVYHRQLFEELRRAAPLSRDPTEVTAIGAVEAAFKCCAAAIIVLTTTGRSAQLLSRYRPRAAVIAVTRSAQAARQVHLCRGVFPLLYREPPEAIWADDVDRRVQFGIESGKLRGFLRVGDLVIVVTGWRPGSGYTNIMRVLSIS
# pyruvate kinase (PK) activity in human CD4+ T cell lysates, sequence (P14618 2-531 limits assumed): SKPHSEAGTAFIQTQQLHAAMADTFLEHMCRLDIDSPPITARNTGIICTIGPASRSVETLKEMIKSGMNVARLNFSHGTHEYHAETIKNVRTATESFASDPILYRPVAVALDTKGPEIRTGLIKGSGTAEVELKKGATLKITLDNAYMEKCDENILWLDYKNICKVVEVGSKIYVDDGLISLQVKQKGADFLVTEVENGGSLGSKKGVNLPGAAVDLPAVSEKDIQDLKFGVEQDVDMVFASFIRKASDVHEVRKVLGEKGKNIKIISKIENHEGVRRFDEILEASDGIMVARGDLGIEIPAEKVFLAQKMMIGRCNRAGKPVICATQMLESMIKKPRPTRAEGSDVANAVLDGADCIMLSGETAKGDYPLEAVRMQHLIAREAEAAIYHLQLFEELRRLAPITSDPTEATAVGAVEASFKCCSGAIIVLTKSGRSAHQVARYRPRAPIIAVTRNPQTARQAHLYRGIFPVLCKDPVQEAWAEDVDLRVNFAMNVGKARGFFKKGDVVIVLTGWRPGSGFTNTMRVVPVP
structure (smiles),measurement,setting,value
"O=c1c2ccc(S(=O)(=O)c3cn[nH]c3)cc2cnn1Cc1ccn(C2CC2)n1 [Example 1, 6-((1H-pyrazol-4-yl)sulfonyl)-2-((1-cyclopropyl-1H-pyrazol-3-yl)methyl) phthalazin-1(2H)-one]",Emax,"[1]; data from repeated experiments, normalised to DMSO and 5 μM TEPP-46",107%
same,EC50,"[1]; data from repeated experiments, read-out: hPKM2 EC50",0.107 µM
same,Emax,[1]; percentage activation normalised to DMSO (LOW) and 5 μM TEPP-46 (HIGH),114%
same,EC50,"[1]; recombinant His-tagged hPKM2, activation, 4-parameter logistic fit",0.0645 µM
same,EC50,[2],0.0825 µM
same,Emax,"[3]; percentage activation normalised to DMSO (LOW) and 5 μM TEPP-46 (HIGH), read-out: hPKLR Emax",134%
same,EC50,"[3]; recombinant His-tagged hPKLR, activation, 4-parameter logistic fit",0.0103 µM
